Results reported in ChEMBL document CHEMBL3351647, “Organochalcogen compounds from glycerol: synthesis of new antioxidants” (Bioorg Med Chem, 2014).

Assays:
Type in all cases: physicochemical
[1] = Antioxidant activity assessed as DPPH radical scavenging activity at 10 uM by spectrophotometry relative to control
[2] = Antioxidant activity assessed as DPPH radical scavenging activity at 50 uM by spectrophotometry relative to control
[3] = Antioxidant activity assessed as DPPH radical scavenging activity at 100 uM by spectrophotometry relative to control
[4] = Antioxidant activity assessed as DPPH radical scavenging activity at 500 uM by spectrophotometry relative to control
[5] = Antioxidant activity assessed as ABTS radical scavenging activity at 10 uM by spectrophotometry relative to control
[6] = Antioxidant activity assessed as ABTS radical scavenging activity at 25 uM by spectrophotometry relative to control
[7] = Antioxidant activity assessed as ABTS radical scavenging activity at 50 uM by spectrophotometry relative to control
[8] = Antioxidant activity assessed as ABTS radical scavenging activity at 100 uM by spectrophotometry relative to control
[9] = Antioxidant activity assessed as ABTS radical scavenging activity at 500 uM by spectrophotometry relative to control
[10] = Antioxidant activity assessed as […] scavenging activity by measuring NaNO2 at 10 uM by spectrophotometry
[11] = Antioxidant activity assessed as […] scavenging activity by measuring NaNO2 at 50 uM by spectrophotometry
[12] = Antioxidant activity assessed as […] scavenging activity by measuring NaNO2 at 100 uM by spectrophotometry
[13] = Antioxidant activity assessed as […] scavenging activity by measuring NaNO2 at 500 uM by spectrophotometry
[14] = Antioxidant activity assessed as ferric ion reducing activity at 10 to 500 uM after 40 mins by spectrophotometry relative to control
[15] = Antioxidant activity assessed as hydroxyl radical scavenging activity
[16] = Antioxidant activity assessed as inhibition of Fe2+/ascorbic acid-induced linoleic acid peroxidation at 1 uM by spectrophotometry relative to control; design: scale not given: the % may be the effect or the level left
[17] = Antioxidant activity assessed as inhibition of Fe2+/ascorbic acid-induced linoleic acid peroxidation at 5 uM by spectrophotometry relative to control; design: scale not given: the % may be the effect or the level left
[18] = Antioxidant activity assessed as inhibition of Fe2+/ascorbic acid-induced linoleic acid peroxidation at 10 uM by spectrophotometry relative to control; design: scale not given: the % may be the effect or the level left
[19] = Antioxidant activity assessed as inhibition of Fe2+/ascorbic acid-induced linoleic acid peroxidation at 50 uM by spectrophotometry relative to control; design: scale not given: the % may be the effect or the level left
[20] = Antioxidant activity assessed as inhibition of Fe2+/ascorbic acid-induced linoleic acid peroxidation at 100 uM by spectrophotometry relative to control; design: scale not given: the % may be the effect or the level left
[21] = Antioxidant activity assessed as inhibition of Fe2+/ascorbic acid-induced linoleic acid peroxidation at 500 uM by spectrophotometry relative to control; design: scale not given: the % may be the effect or the level left
[22] = Antioxidant activity assessed as DPPH radical scavenging activity by spectrophotometry relative to control
[23] = Antioxidant activity assessed as ABTS radical scavenging activity at 1 uM by spectrophotometry relative to control
[24] = Antioxidant activity assessed as ABTS radical scavenging activity at 5 uM by spectrophotometry relative to control
[25] = Antioxidant activity assessed as ABTS radical scavenging activity by spectrophotometry relative to control
[26] = Antioxidant activity assessed as superoxide dismutase-like activity
[27] = Antioxidant activity assessed as inhibition of Fe2+/ascorbic acid-induced linoleic acid peroxidation by spectrophotometry relative to control

Structure (SMILES)	Activity [1] [%]	Activity [2] [%]	Activity [3] [%]	Activity [4] [%]	Activity [5] [%]	Activity [6] [%]	Activity [7] [%]	Activity [8] [%]	Activity [9] [%]	Activity [10] [µM]	Activity [11] [µM]	Activity [12] [µM]	Activity [13] [µM]	Activity [14]	Activity [15]	Activity [16] [%]	Activity [17] [%]	Activity [18] [%]	Activity [19] [%]	Activity [20] [%]	also measured
CC1(C)OCC(CSc2ccccc2)O1 (stereo not given)	0.01	1.07	0.5	1.65	0.47	0	0.15	0.36	0.08	49.59	50.91	50.48	49.68	Not Active	Not Active	86.7	87.79	76.51	76.51	74.88	Activity [21]: 72.46%
CC1(C)OCC(CO)O1 (stereo not given)	0.54	0.98	0.98	0.98	0	0	0.85	1.7	9.84	56.6	55.45	52.22	54.47	Not Active	Not Active	72.67	66.2	79.89	72.35	72.48	Activity [21]: 76.4%
CC1(C)OCC(C[Te]c2ccccc2)O1 (stereo not given)	3.57	11.08	22.55	77.86	22.72	53.41	90.64	99.5	99.9	64.13	55.95	54.93	44.49	Active	Not Active	79.46	66.29	57.39	43.34	31.66	IC50 [22]: 309 µM; Activity [23]: 2.18%; Activity [24]: 12.04%; IC50 [25]: 24.5 µM; Activity [26]: Not Active; Activity [21]: 20.6%; IC50 [27]: 24.5 µM
CC1(C)OCC(C[Se]c2ccccc2)O1 (stereo not given)	0.98	0.63	0.63	1.3	0	0	1.19	1.15	4.75	54.43	52.5	51.95	49.65	Not Active	Not Active	88.37	94.34	86.97	89.97	86.55	Activity [21]: 81.22%
